Test results: ChEMBL document CHEMBL3244204, “Acetylenics. 2. Synthesis and pharmacology of certain N,N-diakyl-3-phenylpropyn-2-amines. Some analogues with tryptamine-like behavioral effects in mice” (J Med Chem, 1978)
Active and inactive are the calls of the source. The calls are words filed in the database; no cut-off is given here.

Key:
[1] = species on record: Rattus norvegicus; test: Inhibition of rat liver MAO assessed as release of 4-hydroxyquinoline from kynuramine at 3.6 x 10^-6 M
[2] = species on record: Rattus norvegicus; test: Inhibition of rat liver MAO assessed as release of 4-hydroxyquinoline from kynuramine at 3.6 x 10^-6 M preincubated for 10 mins
[3] = system: Mus musculus; test: Induction of gross behavioral activity in ip dosed Swiss albino mouse assessed as minimum effective dose; format: functional; settings: read-out: MED
[4] = system: Mus musculus; test: Induction of gross behavioral activity in Swiss albino mouse assessed as clonic seizure of hind quarters at 50 mg/kg, ip after 10 to 15 mins; format: functional, organism-based; set-up: dose 50 mg/kg
[5] = system: Mus musculus; test: Induction of gross behavioral activity in Swiss albino mouse assessed as decrease in motor activity with some clonic seizure at 50 mg/kg, ip after 25 to 30 mins; format: functional, organism-based; set-up: dose 50 mg/kg
[6] = system: Mus musculus; test: Induction of gross behavioral activity in Swiss albino mouse assessed as increase in clonic seizure of hind quarters at 25 mg/kg, ip in presence of 5HT antagonist BOL; format: functional, organism-based; set-up: dose 25 mg/kg
[7] = system: Mus musculus; test: Induction of gross behavioral activity in Swiss albino mouse assessed as increase in clonic seizure of hind quarters at 25 mg/kg, ip in presence of 2 to 25 mg/kg of methysergide; format: functional, organism-based
[8] = system: Mus musculus; test: Induction of gross behavioral activity in Swiss albino mouse assessed as increase in clonic seizure of hind quarters at 25 mg/kg, ip in presence of 3 mg/kg of cyprohepatidine; format: functional, organism-based
[9] = system: Mus musculus; test: Induction of gross behavioral activity in 3 mg/kg of cyprohepatidine treated Swiss albino mouse assessed as increase in clonic seizure of hind quarters at 25 mg/kg, ip treated 40 mins after cyprohepatidine administration; format: functional, organism-based

| Compound | inhibition [1] | inhibition [2] | minimal effective dose [3] | Activity [4] | Activity [5] | Activity [6] | Activity [7] | Activity [8] | Activity [9] |
| --- | --- | --- | --- | --- | --- | --- | --- | --- | --- |
| C#CCN(C)Cc1ccccc1 | 45% | 78% |  |  |  |  |  |  |  |
| NCCc1c[nH]c2ccccc12 [TRYPTAMINE] |  |  | < 25 mg/kg | Active | Active | inactive | Active | Active | inactive |
